Our source for the Papp values is patent US20230096766A1, “AMINO ACID HAVING FUNCTIONAL GROUP CAPABLE OF INTERMOLECULAR HYDROGEN BONDING, PEPTIDE COMPOUND CONTAINING SAME AND METHOD FOR PRODUCTION THEREOF” (Chugai Seiyaku Kabushiki Kaisha, priority 2018, published 2023).

The structures appear in SMILES notation. *1 amine or outer side, *2 acyl side, *3 side chain or, on linkers, in order; H or OH if unused. Where a SMILES comes first, the peptide text is derived from it. Bridges are numbered along the chain shown (N, C = ends). [ ]: non-standard residue; d: D form. The star is where a group is joined. ξ: configuration not given here. hPhe(3-OMe,4-CONHMe) = CNC(=O)c1ccc(CC[C@H](N)C(=O)O)cc1OC; Phe(4-COOH) = N[C@@H](Cc1ccc(C(=O)O)cc1)C(=O)O; X11 = CNC(=O)c1ccc(CCN(CC(=O)[*:2])[*:1])cc1OC; NMePhe(3-Cl) = CN[C@@H](Cc1cccc(Cl)c1)C(=O)O; X12 = O=C([C@H](CCCC(O)C(F)(F)F)N[*:1])[*:2]; Tyr(3-F) = N[C@@H](Cc1ccc(O)c(F)c1)C(=O)O; NMehPhe = CN[C@@H](CCc1ccccc1)C(=O)O; NMeF = CN[C@@H](Cc1ccccc1)C(=O)O; NMeGABA = CN(CCCC(=O)[*:2])[*:1]; NMeI = CC[C@H](C)[C@H](NC)C(=O)O; CH2CH(OH)CF3 = OC(C*)C(F)(F)F; CH2CONHtBu = CC(C)(C)NC(=O)C*; NMeL = CN[C@@H](CC(C)C)C(=O)O; Thr(3ξ) = CC(O)[C@H](N)C(=O)O; Propyl(2R-OH) = C[C@@H](O)C*; Butyl(3S-OH) = C[C@H](O)CC*; NMeV = CN[C@H](C(=O)O)C(C)C; NMeAbu = CC[C@H](NC)C(=O)O; NMeA = CN[C@@H](C)C(=O)O; Piperidide = C1CCN(*)CC1; X8 = C1COC[C@@H](C*)N1; CH2CONHMe = CNC(=O)C*; Me2NCH2CH2 = CN(C)CC*; NBuGly = CCCCNCC(=O)O; NPrGly = CCCNCC(=O)O; N(OH)Me = CN(O)*; Sar = CNCC(=O)O; tBu = CC(C)(C)*

The first data set is described as follows: in vitro. The following applies: human, Caco-2, Caco-2.
One may read the Papp as a coefficient for how fast a substance crosses the barrier. Low readings indicate slow passage, high ones fast passage. As for `CCCCN1CC(=O)N(C)[C@@H](CC(C)C)C(=O)N[C@@H](COC(C)(C)C)C(=O)N(C)[C@@H](Cc2ccccc2)C(=O)N(C)[C@@H](C(C)C)C(=O)N[C@H](C(=O)N2CCCCC2)CC(=O)N[C@H](C(C)C)C(=O)N(C)[C@@H](Cc2ccccc2)C(=O)N[C@@H](COCCN(C)C)C(=O)N(C)[C@@H](CC(C)C)C(=O)N[C@@H]([C@@H](C)O)C1=O` [pd53] ([dV][NMeF]S(Me2NCH2CH2)[NMeL]T[NBuGly][NMeL]S(tBu)[NMeF][NMeV]D-Piperidide; lactam N-11), the Papp is 0.14 ×10⁻⁶ cm/s.

The data set is the same for the next values; noted with them: human, Caco-2, Caco-2 (cm/sec).
Compound `CCCCN1CC(=O)N(C)[C@@H](CC(C)C)C(=O)N[C@H](C(=O)N2CCCCC2)CC(=O)N(C)[C@@H](C)C(=O)N[C@@H](COC[C@@H]2COCCN2)C(=O)N(C)[C@@H](CC(C)C)C(=O)N(C)[C@@H](CC)C(=O)N[C@@H](C(C)C)C(=O)N(C)[C@@H](Cc2ccccc2)C(=O)N(C)[C@@H](CC(C)C)C(=O)N[C@@H]([C@@H](C)O)C1=O` [AP243] ([NMeA]S(X8)[NMeL][NMeAbu]V[NMeF][NMeL]T[NBuGly][NMeL]D-Piperidide; lactam N-11) registered a Papp of 0.46 ×10⁻⁶ cm/s. Still for that read-out and setting: next, `CCCCN1CC(=O)N(C)[C@@H](CC(C)C)C(=O)N[C@@H](COC(C)(C)C)C(=O)N(C)[C@@H]([C@@H](C)CC)C(=O)N(C)[C@@H](CC(C)C)C(=O)N[C@H](C(=O)N2CCCCC2)CC(=O)N[C@H](C)C(=O)N(C)[C@@H](Cc2ccccc2)C(=O)N[C@@H](Cc2ccc(C(=O)N(C)O)cc2)C(=O)N(C)[C@@H](CC(C)C)C(=O)N[C@@H]([C@@H](C)O)C1=O` [AP250] ([dA][NMeF][Phe(4-COOH)](N(OH)Me)[NMeL]T[NBuGly][NMeL]S(tBu)[NMeI][NMeL]D-Piperidide; lactam N-11): 0.12 ×10⁻⁶ cm/s; `CC(C)C[C@@H]1NC(=O)[C@H](Cc2ccccc2)N(C)C(=O)[C@@H](C(C)C)NC(=O)C[C@@H](C(=O)N2CCCCC2)NC(=O)[C@H](CC(C)C)N(C)C(=O)[C@H](Cc2cccc(Cl)c2)N(C)C(=O)[C@H](COCC[C@H](C)O)NC(=O)[C@H](CC(C)C)N(C)C(=O)CN(C)C(=O)[C@H]([C@@H](C)O)NC(=O)[C@H](CC(C)C)N(C)C1=O` [AP100] ([dV][NMeF]L[NMeL]T[Sar][NMeL]S(Butyl(3S-OH))[NMePhe(3-Cl)][NMeL]D-Piperidide; lactam N-11): 0.55 ×10⁻⁶ cm/s; `CCCCN1CC(=O)N(C)[C@@H](Cc2cccc(Cl)c2)C(=O)N(C)[C@@H](CC(C)C)C(=O)N[C@@H](COC[C@@H](C)O)C(=O)N(C)[C@@H](CC(C)C)C(=O)N[C@H](C(=O)N2CCCCC2)CC(=O)N(C)CC(=O)N(C)[C@@H](Cc2ccccc2)C(=O)N[C@@H]([C@@H](C)CC)C(=O)N(C)[C@@H](CC(C)C)C(=O)N[C@@H]([C@@H](C)O)C1=O` [AP78] ([Sar][NMeF]I[NMeL]T[NBuGly][NMePhe(3-Cl)][NMeL]S(Propyl(2R-OH))[NMeL]D-Piperidide; lactam N-11): 0.24 ×10⁻⁶ cm/s. On the same count and under the same terms, next, `CC[C@H]1C(=O)N[C@@H](CC(C)C)C(=O)N(C)[C@@H](CC(C)C)C(=O)N(C)[C@@H](Cc2ccccc2)C(=O)N[C@@H](CC(C)C)C(=O)N(C)[C@@H](CC(C)C)C(=O)N(CCc2ccc(C(=O)NC)c(OC)c2)CC(=O)N[C@@H]([C@@H](C)O)C(=O)N(C)CC(=O)N(C)[C@@H](CC(C)C)C(=O)N[C@H](C(=O)N2CCCCC2)CC(=O)N1C` [AP223] ([NMeAbu]L[NMeL][NMeF]L[NMeL][X11]T[Sar][NMeL]D-Piperidide; lactam N-11): 1.6 ×10⁻⁶ cm/s. `CC[C@H](C)[C@@H]1NC(=O)[C@H](CC(C)C)N(C)C(=O)CCCN(C)C(=O)C[C@@H](C(=O)N2CCCCC2)NC(=O)[C@H](CC(C)C)N(C)C(=O)[C@H](C)N(C)C(=O)[C@H]([C@@H](C)O)NC(=O)[C@H](CC(C)C)N(C)C(=O)[C@H](Cc2ccc(O)c(F)c2)NC(=O)[C@H](CC(C)C)N(C)C(=O)[C@H](Cc2ccccc2)N(C)C1=O` [pd119] ([NMeGABA][NMeL]I[NMeF][NMeL][Tyr(3-F)][NMeL]T[NMeA][NMeL]D-Piperidide; lactam N-11): the Papp is 0.16 ×10⁻⁶ cm/s. The same measure, in the same setting: to `CCCCN1CC(=O)N(C)[C@@H](CC(C)C)C(=O)N[C@@H](COCC(=O)NC(C)(C)C)C(=O)N(C)[C@@H](CCc2ccccc2)C(=O)N(C)[C@@H](C)C(=O)N[C@H](C(=O)N2CCCCC2)CC(=O)N[C@H](CC(C)C)C(=O)N(C)[C@@H](CC(C)C)C(=O)N[C@@H](Cc2ccccc2)C(=O)N(C)[C@@H](CC(C)C)C(=O)N[C@@H](C(C)O)C1=O` (stereo partly drawn) [AP12] ([dL][NMeL]F[NMeL][Thr(3ξ)][NBuGly][NMeL]S(CH2CONHtBu)[NMehPhe][NMeA]D-Piperidide; lactam N-11) belongs 0.17 ×10⁻⁶ cm/s; to `CC[C@H](C)[C@@H]1NC(=O)[C@H](CC(C)C)N(C)C(=O)CCCN(C)C(=O)C[C@@H](C(=O)N2CCCCC2)NC(=O)[C@H](CC(C)C)N(C)C(=O)[C@H](CC(C)C)N(C)C(=O)[C@H]([C@@H](C)O)NC(=O)[C@H](CC(C)C)N(C)C(=O)[C@H](CCc2ccc(C(=O)NC)c(OC)c2)NC(=O)[C@H](CC(C)C)N(C)C(=O)[C@H](Cc2ccccc2)N(C)C1=O` [AP202] ([NMeGABA][NMeL]I[NMeF][NMeL][hPhe(3-OMe,4-CONHMe)][NMeL]T[NMeL][NMeL]D-Piperidide; lactam N-11), 0.18 ×10⁻⁶ cm/s.

Staying with this data set, now noted: human, Caco-2, Caco-2 (cm/sec) Papp.
`CC(C)C[C@@H]1NC(=O)[C@H](Cc2ccccc2)N(C)C(=O)[C@H]([C@@H](C)O)NC(=O)[C@H](Cc2ccccc2)NC(=O)[C@H](Cc2ccccc2)N(C)C(=O)C[C@@H](C(=O)N2CCCCC2)NC(=O)[C@H](C)N(C)C(=O)[C@H](CC(C)C)N(C)C(=O)CN(C)C(=O)[C@H](CC(C)C)N(C)C(=O)[C@H](Cc2ccccc2)N(C)C1=O` [pd230] ([NMeF]FT[NMeF]L[NMeF][NMeL][Sar][NMeL][NMeA]D-Piperidide; lactam N-11) registered a Papp of 0.25 ×10⁻⁶ cm/s.

Still in this data set, the particulars now being: human, Caco-2, Caco-2 (membrane permeability).
`CC[C@H](C)[C@@H]1NC(=O)[C@H](CC(C)C)N(C)C(=O)[C@H](COCC(O)C(F)(F)F)NC(=O)[C@H](Cc2ccccc2)N(C)C(=O)CN(C)C(=O)C[C@@H](C(=O)N2CCCCC2)NC(=O)[C@H](CC(C)C)N(C)C(=O)[C@H](COC(C)(C)C)NC(=O)[C@H](CC(C)C)N(C)C(=O)[C@H](Cc2ccccc2)N(C)C(=O)CN(C)C1=O` (stereo partly drawn) [Compound C17] ([Sar][NMeF]S(CH2CH(OH)CF3)[NMeL]I[Sar][NMeF][NMeL]S(tBu)[NMeL]D-Piperidide; lactam N-11) showed a Papp of 4.1 ×10⁻⁶ cm/s. The same measure, in the same setting: to `CCCCN1CC(=O)N(C)[C@@H](Cc2ccccc2)C(=O)N[C@@H]([C@@H](C)CC)C(=O)N(C)[C@@H](CC(C)C)C(=O)N[C@@H]([C@@H](C)O)C(=O)N(CCC)CC(=O)N(C)[C@@H](Cc2ccccc2)C(=O)N(C)[C@@H](CC(C)C)C(=O)N[C@@H](COCC(=O)NC)C(=O)N(C)[C@@H](CC(C)C)C(=O)N[C@H](C(=O)N2CCCCC2)CC1=O` [Compound I06] ([NBuGly][NMeF]I[NMeL]T[NPrGly][NMeF][NMeL]S(CH2CONHMe)[NMeL]D-Piperidide; lactam N-11) belongs 0.24 ×10⁻⁶ cm/s.

Turning to `CCCCN1CC(=O)N(C)[C@@H](Cc2ccccc2)C(=O)N(C)[C@@H](CC(C)C)C(=O)N[C@@H](CCCC(O)C(F)(F)F)C(=O)N(C)[C@@H](CC(C)C)C(=O)N[C@H](C(=O)N2CCCCC2)CC(=O)N(C)CC(=O)N(C)[C@@H](Cc2ccccc2)C(=O)N[C@@H]([C@@H](C)CC)C(=O)N(C)[C@@H](CC(C)C)C(=O)N[C@@H]([C@@H](C)O)C1=O` (stereo partly drawn) [Compound D07] ([Sar][NMeF]I[NMeL]T[NBuGly][NMeF][NMeL][X12][NMeL]D-Piperidide; lactam N-11), the Papp was determined as 0.37 ×10⁻⁶ cm/s.
